Results reported in ChEMBL document CHEMBL3112442, “Anilino-monoindolylmaleimides as potent and selective JAK3 inhibitors” (Bioorg Med Chem Lett, 2014).

Tests used:
[1] = molecular target: Tyrosine-protein kinase JAK1 (Homo sapiens, UniProt P23458)
[2] = molecular target: Non-receptor tyrosine-protein kinase TYK2 (Homo sapiens, UniProt P29597)
[3] = molecular target: T1, Tyrosine-protein kinase JAK3 (Homo sapiens, UniProt P52333)
T1 sequence (P52333 whole entry): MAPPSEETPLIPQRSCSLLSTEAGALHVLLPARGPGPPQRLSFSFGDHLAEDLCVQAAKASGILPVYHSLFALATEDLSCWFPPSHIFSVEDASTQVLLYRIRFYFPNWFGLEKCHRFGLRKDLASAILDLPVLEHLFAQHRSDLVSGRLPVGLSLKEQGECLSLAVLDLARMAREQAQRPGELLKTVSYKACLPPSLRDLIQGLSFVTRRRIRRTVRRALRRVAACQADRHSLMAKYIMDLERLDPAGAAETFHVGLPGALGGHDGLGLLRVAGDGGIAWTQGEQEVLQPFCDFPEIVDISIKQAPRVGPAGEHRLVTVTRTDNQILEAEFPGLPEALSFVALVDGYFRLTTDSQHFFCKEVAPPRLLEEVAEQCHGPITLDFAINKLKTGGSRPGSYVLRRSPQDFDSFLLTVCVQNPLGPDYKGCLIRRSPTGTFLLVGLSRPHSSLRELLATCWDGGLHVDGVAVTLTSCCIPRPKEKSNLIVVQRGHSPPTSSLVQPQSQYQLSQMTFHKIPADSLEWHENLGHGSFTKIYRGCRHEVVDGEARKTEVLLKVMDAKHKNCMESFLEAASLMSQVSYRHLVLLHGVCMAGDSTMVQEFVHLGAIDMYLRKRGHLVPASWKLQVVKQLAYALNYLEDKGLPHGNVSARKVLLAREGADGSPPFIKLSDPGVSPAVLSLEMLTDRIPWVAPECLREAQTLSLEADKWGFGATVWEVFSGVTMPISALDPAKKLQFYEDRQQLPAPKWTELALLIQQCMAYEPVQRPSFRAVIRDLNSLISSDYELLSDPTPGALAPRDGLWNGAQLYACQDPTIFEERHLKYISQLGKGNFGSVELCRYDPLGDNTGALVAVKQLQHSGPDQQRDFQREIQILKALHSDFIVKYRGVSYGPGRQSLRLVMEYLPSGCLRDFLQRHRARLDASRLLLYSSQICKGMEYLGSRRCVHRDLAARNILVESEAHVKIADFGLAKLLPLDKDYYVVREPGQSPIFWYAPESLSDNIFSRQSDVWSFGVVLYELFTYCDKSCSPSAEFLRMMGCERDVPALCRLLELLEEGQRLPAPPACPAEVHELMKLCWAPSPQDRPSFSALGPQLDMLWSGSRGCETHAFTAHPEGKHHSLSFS

Non-receptor tyrosine-protein kinase TYK2, sequence (P29597 whole entry): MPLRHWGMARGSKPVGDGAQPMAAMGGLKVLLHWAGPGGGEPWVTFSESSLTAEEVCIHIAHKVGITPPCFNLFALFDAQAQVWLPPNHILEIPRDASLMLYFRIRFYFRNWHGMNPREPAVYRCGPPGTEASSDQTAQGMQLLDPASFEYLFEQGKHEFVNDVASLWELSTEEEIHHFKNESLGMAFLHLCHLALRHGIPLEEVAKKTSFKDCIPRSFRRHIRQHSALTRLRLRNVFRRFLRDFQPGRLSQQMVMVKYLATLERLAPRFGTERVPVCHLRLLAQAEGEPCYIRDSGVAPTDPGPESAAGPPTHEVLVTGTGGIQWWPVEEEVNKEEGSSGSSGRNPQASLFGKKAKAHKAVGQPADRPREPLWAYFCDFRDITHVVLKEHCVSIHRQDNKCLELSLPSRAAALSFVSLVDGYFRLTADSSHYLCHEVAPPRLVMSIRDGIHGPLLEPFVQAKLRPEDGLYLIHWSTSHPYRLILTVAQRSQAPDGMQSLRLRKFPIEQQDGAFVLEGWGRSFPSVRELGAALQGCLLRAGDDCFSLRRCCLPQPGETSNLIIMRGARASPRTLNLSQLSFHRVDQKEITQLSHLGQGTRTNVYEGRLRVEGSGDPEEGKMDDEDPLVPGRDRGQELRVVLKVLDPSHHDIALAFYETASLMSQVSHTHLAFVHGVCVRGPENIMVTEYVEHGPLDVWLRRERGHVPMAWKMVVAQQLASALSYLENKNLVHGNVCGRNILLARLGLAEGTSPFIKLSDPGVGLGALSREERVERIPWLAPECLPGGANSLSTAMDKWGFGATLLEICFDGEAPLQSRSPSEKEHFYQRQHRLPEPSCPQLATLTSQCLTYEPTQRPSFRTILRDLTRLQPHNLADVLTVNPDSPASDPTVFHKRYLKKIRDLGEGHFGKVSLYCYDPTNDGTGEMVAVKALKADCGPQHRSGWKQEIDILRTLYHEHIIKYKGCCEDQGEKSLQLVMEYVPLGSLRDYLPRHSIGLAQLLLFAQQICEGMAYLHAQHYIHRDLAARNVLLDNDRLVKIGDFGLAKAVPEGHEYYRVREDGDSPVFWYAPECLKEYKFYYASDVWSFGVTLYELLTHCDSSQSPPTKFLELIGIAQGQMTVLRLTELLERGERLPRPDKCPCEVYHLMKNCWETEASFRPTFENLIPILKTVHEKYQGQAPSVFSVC
Tyrosine-protein kinase JAK1, sequence (P23458 whole entry): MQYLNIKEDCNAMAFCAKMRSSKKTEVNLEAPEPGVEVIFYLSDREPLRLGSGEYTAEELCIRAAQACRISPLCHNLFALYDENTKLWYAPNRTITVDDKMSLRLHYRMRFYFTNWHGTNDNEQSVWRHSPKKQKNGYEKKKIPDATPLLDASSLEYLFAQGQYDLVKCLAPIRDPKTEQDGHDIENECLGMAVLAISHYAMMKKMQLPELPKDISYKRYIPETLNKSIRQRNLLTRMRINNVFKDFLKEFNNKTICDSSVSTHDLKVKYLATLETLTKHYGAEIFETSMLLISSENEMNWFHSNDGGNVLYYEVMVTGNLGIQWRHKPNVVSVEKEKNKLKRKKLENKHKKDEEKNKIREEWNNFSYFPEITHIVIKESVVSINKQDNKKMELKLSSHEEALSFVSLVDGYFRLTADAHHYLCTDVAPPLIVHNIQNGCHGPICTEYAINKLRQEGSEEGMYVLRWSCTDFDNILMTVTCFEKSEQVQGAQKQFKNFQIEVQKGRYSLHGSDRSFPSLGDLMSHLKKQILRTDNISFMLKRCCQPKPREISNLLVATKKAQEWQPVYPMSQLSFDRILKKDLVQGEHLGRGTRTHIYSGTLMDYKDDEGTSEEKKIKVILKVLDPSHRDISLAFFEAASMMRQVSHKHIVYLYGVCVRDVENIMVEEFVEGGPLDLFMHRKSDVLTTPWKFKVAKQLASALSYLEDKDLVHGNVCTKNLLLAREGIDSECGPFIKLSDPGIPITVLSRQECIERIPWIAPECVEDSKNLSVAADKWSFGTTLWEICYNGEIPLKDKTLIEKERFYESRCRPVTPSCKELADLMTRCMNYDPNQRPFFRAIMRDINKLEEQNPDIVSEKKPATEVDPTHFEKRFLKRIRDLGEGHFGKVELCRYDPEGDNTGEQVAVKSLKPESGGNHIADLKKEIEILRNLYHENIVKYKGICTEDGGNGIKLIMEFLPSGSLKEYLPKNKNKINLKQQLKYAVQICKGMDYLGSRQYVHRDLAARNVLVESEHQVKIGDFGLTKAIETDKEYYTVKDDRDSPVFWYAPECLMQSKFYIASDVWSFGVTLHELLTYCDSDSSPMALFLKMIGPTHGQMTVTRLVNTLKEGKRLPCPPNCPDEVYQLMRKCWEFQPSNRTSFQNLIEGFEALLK

Compound	IC50 [1] [nM]	IC50 [2] [nM]	IC50 [3] [nM]
O=C1NC(=O)C(c2c[nH]c3ccccc23)=C1Nc1cccc(O[C@H]2CCN(c3ccnc(F)c3)C2)c1	628		13
O=C1NC(=O)C(c2c[nH]c3ccccc23)=C1Nc1cccc(O[C@@H]2CCN(c3ccnc(F)c3)C2)c1	4900	> 10000	497
O=C1NC(=O)C(c2c[nH]c3ccccc23)=C1Nc1cccc(C2CCN(c3ccnc(F)c3)CC2)c1	> 10000	> 10000	> 10000
O=C1NC(=O)C(c2c[nH]c3ccccc23)=C1Nc1cccc(OCCCn2ccnc2)c1	300	> 10000	128
O=C1NC(=O)C(c2c[nH]c3ccccc23)=C1Nc1cccc(OCCn2ccnc2)c1	> 10000	> 10000	1790
O=C1NC(=O)C(c2c[nH]c3ccccc23)=C1Nc1ccc(OCCn2ccnc2)cc1	> 10000	7370	278
O=C1NC(=O)C(c2c[nH]c3ccccc23)=C1Nc1ccc(OCCCn2ccnc2)cc1	8640	> 10000	1150
O=C1NC(=O)C(c2c[nH]c3ccccc23)=C1Nc1ccc(OCCNc2ccnc(F)c2)cc1	2060	9840	201
O=C1NC(=O)C(c2c[nH]c3ccccc23)=C1Nc1ccccc1OCCNc1ccnc(F)c1	> 10000	> 10000	> 10000
O=C1NC(=O)C(c2c[nH]c3ccccc23)=C1Nc1cccc(OCCNc2ccnc(F)c2)c1	423	> 10000	29
O=C1NC(=O)C(c2c[nH]c3ccccc23)=C1Nc1cccc(OCCNc2ccccn2)c1			1500
O=C1NC(=O)C(c2c[nH]c3ccccc23)=C1Nc1cccc(OCCNc2cnccn2)c1			408
O=C1NC(=O)C(c2c[nH]c3ccccc23)=C1Nc1cccc(OCCNc2ccccc2)c1			1380
O=C1NC(=O)C(c2ccccc2)=C1Nc1cccc(OCCNc2ccnc(F)c2)c1	2170	> 10000	576
O=C1NC(=O)C(c2c[nH]c3ccccc23)=C1Nc1cccc(OC2CN(c3ccnc(F)c3)C2)c1	4100	> 10000	200
O=C1NC(=O)C(c2c[nH]c3ccccc23)=C1Nc1cccc(OC2CCCN(c3ccnc(F)c3)C2)c1 (racemic)	> 10000	> 10000	163
O=C1NC(=O)C(c2c[nH]c3ccccc23)=C1Nc1cccc(OC2CCN(c3ccnc(F)c3)C2)c1 (racemic)	564	11900	12

The remaining lines, values ahead:

IC50 [1] [nM]	IC50 [2] [nM]	IC50 [3] [nM]	Compound
311	1690		CC(C)(O)C(=O)N1CCN(c2ccc(C(F)(F)F)c(C3=C(c4c[nH]c5ccccc45)C(=O)NC3=O)c2)CC1
11100	> 10000	576	O=C1NC(=O)C(c2c[nH]c3ccccc23)=C1Nc1cccc(C2CN(c3ccnc(F)c3)C2)c1
> 10000	> 10000	9370	O=C1NC(=O)C(c2c[nH]c3ccccc23)=C1Nc1ccccc1OCCn1ccnc1
1060	> 10000	135	O=C1NC(=O)C(c2c[nH]c3ccccc23)=C1Nc1ccc(OCCCNc2ccnc(F)c2)cc1
1780	5100	179	Cn1cc(C2=C(Nc3cccc(OCCNc4ccnc(F)c4)c3)C(=O)NC2=O)c2ccccc21
> 10000	995	46	CN(CCOc1cccc(NC2=C(c3c[nH]c4ccccc34)C(=O)NC2=O)c1)c1ccnc(F)c1
		1390	O=C1NC(=O)C(c2c[nH]c3ccccc23)=C1Nc1cccc(OCCNc2cc(F)cc(F)c2)c1
> 10000	> 10000	> 10000	O=C1C=C(Nc2cccc(OCCNc3ccnc(F)c3)c2)C(=O)N1
4820	> 10000	625	O=C1NC(=O)C(c2c[nH]c3ccccc23)=C1Nc1cccc(OC2CCN(c3ccnc(F)c3)CC2)c1
770	2310	17	O=C1NC(=O)C(c2cn(CCCn3ccnc3)c3ccccc23)=C1Nc1ccccc1
> 10000	> 10000	> 10000	O=C1NC(=O)C(c2c[nH]c3ccccc23)=C1Nc1cccc(C2CCN(c3ccnc(F)c3)C2)c1 (racemic)
